{"source": "paper PMC11477967", "about": "“Review of the Structural Characteristics and Biological Activities of Tricholoma Secondary Metabolites (2018–2023)” (Molecules, 2024)", "origin": "cited, not measured here", "key": {"S. aureus [1]": {"tested_on": "S. aureus", "set-up": "method as in PMID 26186257"}, "B. subtilis": {"tested_on": "B. subtilis", "set-up": "method as in PMID 26186257"}, "human tumor cell lines": {"tested_on": "human tumor cell lines", "set-up": "method as in PMID 29758519, PMID 32534274, PMID 26186257", "conditions": "Table 1 summary"}, "S. epidermidis [2]": {"tested_on": "S. epidermidis", "set-up": "method as in PMID 26186257"}, "MCF-7 [3]": {"tested_on": "MCF-7"}, "bacteria": {"tested_on": "bacteria", "set-up": "method as in PMID 32534274, PMID 26186257, PMID 34604687, PMID 28794307", "conditions": "Table 1 summary"}, "E. coli [4]": {"tested_on": "E. coli", "set-up": "method as in PMID 26186257"}, "Pseudomonas aeruginosa": {"tested_on": "Pseudomonas aeruginosa", "set-up": "method as in PMID 26186257"}, "A-549 [5]": {"tested_on": "A-549"}, "[6]": {"set-up": "method as in PMID 36480815", "conditions": "Table 1 summary"}, "human cancer cell lines": {"tested_on": "human cancer cell lines", "conditions": "for Bioactivities: Cytotoxic against human cancer cell lines: Table 1 summary; for cytotoxicity rank: among 55, 56, 58, 60, 61, cell line not specified"}, "PDF": {"tested_on": "PDF", "set-up": "method as in PMID 36480815", "conditions": "PDF cells"}, "HeLa [7]": {"tested_on": "HeLa", "set-up": "method as in PMID 33449279"}, "MCF-7 [8]": {"tested_on": "MCF-7", "set-up": "method as in PMID 33449279", "conditions": "MCF-7 cells"}, "caspase-9": {"tested_on": "caspase-9", "set-up": "method as in PMID 33449279", "conditions": "compared to the control group"}, "caspase-3": {"tested_on": "caspase-3", "set-up": "method as in PMID 33449279", "conditions": "compared to the control group"}, "E. coli [9]": {"tested_on": "E. coli", "set-up": "method as in PMID 28794307"}, "S. epidermidis [10]": {"tested_on": "S. epidermidis", "set-up": "method as in PMID 28794307"}, "S. aureus [11]": {"tested_on": "S. aureus", "set-up": "method as in PMID 28794307"}, "Bacillus subtilis": {"tested_on": "Bacillus subtilis", "set-up": "method as in PMID 28794307"}, "Hep G2 [12]": {"tested_on": "Hep G2", "set-up": "method as in PMID 37175274"}, "A-549 [13]": {"tested_on": "A-549", "set-up": "method as in PMID 37175274"}, "MCF-7 [14]": {"tested_on": "MCF-7", "set-up": "method as in PMID 37175274"}, "Caki-1 [15]": {"tested_on": "Caki-1", "set-up": "method as in doi:10.1177/1934578X1801300901"}, "Hep G2 [16]": {"tested_on": "Hep G2", "set-up": "method as in doi:10.1177/1934578X1801300901", "conditions": "said to surpass shikonin"}, "MCF-7 [17]": {"tested_on": "MCF-7", "set-up": "method as in doi:10.1177/1934578X1801300901"}, "WISH": {"tested_on": "WISH", "set-up": "method as in doi:10.1177/1934578X1801300901"}, "Caki-1 [18]": {"tested_on": "Caki-1", "set-up": "method as in PMID 37175274"}, "A549": {"tested_on": "A549", "set-up": "method as in doi:10.1177/1934578X1801300901", "conditions": "said to surpass shikonin"}, "[19]": {"set-up": "method as in doi:10.1016/0040-4039(96)01329-9", "conditions": "solutions containing trace inorganic acids"}, "HeLa [20]": {"tested_on": "HeLa", "set-up": "method as in PMID 36480815", "conditions": "HeLa cell line"}, "[21]": {"set-up": "method as in PMID 36480815", "conditions": "among 50-54"}}, "note": "Read-outs that look alike come from different tables or passages of the source.", "data": [{"smiles": "CC(C)C(C)C=CC(C)C1CCC2C(=CC(=O)OC3(C)CCC=CC3=O)C(=O)CCC21C", "note": "(centres unmarked) [Compound 40, chaxine C]", "values": [{"measurement": "antibacterial activity", "setting": "S. aureus [1]", "result": "more significant inhibitory effect"}, {"measurement": "antibacterial activity", "setting": "B. subtilis", "result": "more significant inhibitory effect"}, {"measurement": "Bioactivities: Anti-cancer activity", "setting": "human tumor cell lines", "result": "Anti-cancer activity"}, {"measurement": "antibacterial activity", "setting": "S. epidermidis [2]", "result": "antibacterial activity"}, {"measurement": "selective cytotoxicity", "setting": "MCF-7 [3]", "result": "selective toxicity"}, {"measurement": "Bioactivities: Antibacterial activity", "setting": "bacteria", "result": "Antibacterial activity"}, {"measurement": "antibacterial activity", "setting": "E. coli [4]", "result": "antibacterial activity"}, {"measurement": "antibacterial activity", "setting": "Pseudomonas aeruginosa", "result": "antibacterial activity"}, {"measurement": "IC50", "setting": "A-549 [5]", "result": "< 10", "unit": "µM"}, {"measurement": "selective cytotoxicity", "setting": "A-549 [5]", "result": "selective toxicity"}]}, {"smiles": "CC(C)C(C)C=CC(C)C1CCC2C1(C)CCC1C23C=CC2(CC(O)CCC12C)OO3", "note": "(centres unmarked) [Compound 53, ergosterol-endoperoxide]", "values": [{"measurement": "cytotoxic activity", "setting": "HT29; HT29", "result": "selectively inhibited"}, {"measurement": "IC50", "setting": "L929; L929 cells", "result": "65.6 ± 2.2", "unit": "mg/L"}, {"measurement": "Bioactivities: Antioxidant activity", "setting": "[6]", "result": "Antioxidant activity"}, {"measurement": "Bioactivities: Cytotoxic against human cancer cell lines", "setting": "human cancer cell lines", "result": "Cytotoxic against human cancer cell lines"}, {"measurement": "IC50", "setting": "PDF", "result": "52.8 ± 0.5", "unit": "mg/L"}]}, {"smiles": "C=C1CCC(CCC2CC=C(C3(C)CCC(=O)C(C)(C)O3)OC2)C(C)(C)C1CC=C1C(=O)OCC1O", "note": "(centres unmarked) [Compound 63, tricholopardin C]", "values": [{"measurement": "cytotoxicity", "setting": "HeLa [7]", "result": "cytotoxicity"}, {"measurement": "Bioactivities: Cytotoxic against human cancer cell lines", "setting": "human cancer cell lines", "result": "Cytotoxic against human cancer cell lines"}, {"measurement": "IC50", "setting": "MCF-7 [8]", "result": 4.7, "unit": "µM"}, {"measurement": "activation of caspase-9", "setting": "caspase-9", "result": "activation"}, {"measurement": "activation of caspase-3", "setting": "caspase-3", "result": "activation"}]}, {"smiles": "C=CC(O)CCCCC", "note": "(centres unmarked) [Compound 93, 1-octen-3-ol]", "values": [{"measurement": "antibacterial activity", "setting": "E. coli [9]", "result": "strong antibacterial activity"}, {"measurement": "antibacterial activity", "setting": "S. epidermidis [10]", "result": "strong antibacterial activity"}, {"measurement": "Bioactivities: Antibacterial activity", "setting": "bacteria", "result": "Antibacterial activity"}, {"measurement": "antibacterial activity", "setting": "S. aureus [11]", "result": "strong antibacterial activity"}, {"measurement": "antibacterial activity", "setting": "Bacillus subtilis", "result": "strong antibacterial activity"}]}, {"smiles": "C=C1CCC(CC=C2CCC3(OC2)OC2(O)CCC3(C)OC2(C)C)C(C)(C)C1CC=C1C(=O)OCC1O", "note": "(centres unmarked) [Compound 60, saponaceolide F]", "values": [{"measurement": "inhibitory effects", "setting": "Hep G2 [12]", "result": "notable inhibitory effects"}, {"measurement": "inhibitory effects", "setting": "A-549 [13]", "result": "notable inhibitory effects"}, {"measurement": "inhibitory effects", "setting": "MCF-7 [14]", "result": "notable inhibitory effects"}, {"measurement": "Bioactivities: Cytotoxic against human cancer cell lines", "setting": "human cancer cell lines", "result": "Cytotoxic against human cancer cell lines"}, {"measurement": "cytotoxicity rank", "setting": "human cancer cell lines", "result": "most significant cytotoxicity"}, {"measurement": "antiproliferative effects", "setting": "Caki-1 [15]", "result": "strong antiproliferative effects"}, {"measurement": "antiproliferative effects", "setting": "Hep G2 [16]", "result": "strong antiproliferative effects"}, {"measurement": "antiproliferative effects", "setting": "MCF-7 [17]", "result": "strong antiproliferative effects"}, {"measurement": "antiproliferative effects", "setting": "WISH", "result": "strong antiproliferative effects"}, {"measurement": "inhibitory effects", "setting": "Caki-1 [18]", "result": "notable inhibitory effects"}, {"measurement": "antiproliferative effects", "setting": "A549", "result": "strong antiproliferative effects"}]}, {"smiles": "C=C(C#CC1=CC(OC(C)=O)CC(OC(=O)C(C)=CCCC(=C)C#CC2=CC(OC(C)=O)C3OC3C2=O)C1=O)CCC=C(C)C(=O)O", "note": "(centres unmarked) [Compound 79, tricholomenyn C]", "values": [{"measurement": "stability", "setting": "[19]", "result": "easily decomposes"}]}, {"smiles": "C=C1CCC(CCC2CCC3(OC2)OC2(O)CCC3(C)OC2(C)C)C(C)(C)C1CC=C1C(=O)OCC1O", "note": "(centres unmarked) [Compound 56, saponaceolide A]", "values": [{"measurement": "inhibitory effects", "setting": "Hep G2 [12]", "result": "notable inhibitory effects"}, {"measurement": "inhibitory effects", "setting": "A-549 [13]", "result": "notable inhibitory effects"}, {"measurement": "inhibitory effects", "setting": "MCF-7 [14]", "result": "notable inhibitory effects"}, {"measurement": "Bioactivities: Cytotoxic against human cancer cell lines", "setting": "human cancer cell lines", "result": "Cytotoxic against human cancer cell lines"}, {"measurement": "cytotoxicity rank", "setting": "human cancer cell lines", "result": "most significant cytotoxicity"}, {"measurement": "antiproliferative effects", "setting": "Caki-1 [15]", "result": "strong antiproliferative effects"}, {"measurement": "antiproliferative effects", "setting": "Hep G2 [16]", "result": "strong antiproliferative effects"}, {"measurement": "antiproliferative effects", "setting": "MCF-7 [17]", "result": "strong antiproliferative effects"}, {"measurement": "antiproliferative effects", "setting": "WISH", "result": "strong antiproliferative effects"}, {"measurement": "inhibitory effects", "setting": "Caki-1 [18]", "result": "notable inhibitory effects"}, {"measurement": "antiproliferative effects", "setting": "A549", "result": "strong antiproliferative effects"}]}, {"smiles": "CC(C)C(C)/C=C/C(C)C1CCC2C3=CC4OC45C[C@@H](O)CC[C@]5(C)C3CC[C@@]21C", "note": "(stereo partly drawn) [Compound 52, 5α,6α-epoxy-ergosta-7,22-dien,3β-ol]", "values": [{"measurement": "cytotoxic activity", "setting": "HT29", "result": "selectively inhibited"}, {"measurement": "toxicity to normal or healthy cell lines", "setting": "L929", "result": "almost no toxicity"}, {"measurement": "Bioactivities: Antioxidant activity", "setting": "[6]", "result": "Antioxidant activity"}, {"measurement": "cytotoxic activity", "setting": "MCF7", "result": "selectively inhibited"}, {"measurement": "cytotoxic activity", "setting": "H1299", "result": "selectively inhibited"}]}, {"smiles": "CC(C)C(C)/C=C/[C@@H](C)C1CCC2C3=C[C@@H](O)[C@@]45C[C@@H](O)CC[C@]4(C)[C@]3(CC[C@@]21C)O5", "note": "(some centres unmarked) [Compound 51, anatoluin B]", "values": [{"measurement": "toxicity to normal or healthy cell lines", "setting": "L929", "result": "almost no toxicity"}, {"measurement": "Bioactivities: Antioxidant activity", "setting": "[6]", "result": "Antioxidant activity"}, {"measurement": "cytotoxic activity", "setting": "MCF7", "result": "selectively inhibited"}, {"measurement": "cytotoxic activity", "setting": "H1299", "result": "selectively inhibited"}, {"measurement": "cytotoxic activity", "setting": "human cancer cell lines", "result": "good cytotoxic activity"}]}, {"smiles": "CC(C)C(C)/C=C/[C@@H](C)C1CCC2C3=C[C@H](O)[C@@]45C[C@@H](O)CC[C@]4(C)[C@]3(CC[C@@]21C)O5", "note": "(some centres unmarked) [Compound 50, anatoluin A]", "values": [{"measurement": "cytotoxic activity", "setting": "HT29", "result": "selectively inhibited"}, {"measurement": "toxicity to normal or healthy cell lines", "setting": "L929", "result": "almost no toxicity"}, {"measurement": "Bioactivities: Antioxidant activity", "setting": "[6]", "result": "Antioxidant activity"}, {"measurement": "IC50", "setting": "HeLa [20]", "result": "14.3 ± 1.7", "unit": "mg/L"}, {"measurement": "cytotoxic activity", "setting": "MCF7", "result": "selectively inhibited"}, {"measurement": "lipid peroxidation inhibitory activity (rank, words)", "setting": "[21]", "result": "most active"}, {"measurement": "cytotoxic activity", "setting": "H1299", "result": "selectively inhibited"}, {"measurement": "IC50", "setting": "H1299; H1299 cell line", "result": "34.3 ± 1.1", "unit": "mg/L"}]}, {"smiles": "C=C1CCC(CCC2CC=C(C3(C)CCC(=O)C(C)(C)O3)OC2)C(C)(C)C1CC=C1CCOC1=O", "note": "(centres unmarked) [Compound 64, tricholopardin D]", "values": [{"measurement": "cytotoxicity", "setting": "HeLa [7]", "result": "cytotoxicity"}, {"measurement": "Bioactivities: Cytotoxic against human cancer cell lines", "setting": "human cancer cell lines", "result": "Cytotoxic against human cancer cell lines"}]}]}
